The data set is described as follows: solvent given as SMILES.

Take `COC(=O)C(Cc1ccc2oc(-c3ccc4c(c3)c3ccccc3n4-c3ccccc3)nc2c1)NC(=O)OC(C)(C)C` (stereo not given): the absorption maximum amounted to 326 nm (in C1CCCCC1); 327.29 nm (in C1CCOC1); 327.3 nm (in C1COCCO1); 326.9 nm (in CC1CCCO1); 326 nm (in CC1COC(=O)O1); 325.9 nm (in CC#N). Further, the absorption maximum runs as follows: (in CC(C)=O) 325.9 nm; (in CC(C)CC(C)(C)C) 325.1 nm; (in CC(C)CO) 335.8 nm; (in CC(C)O) 327 nm; (in CC(C)OC(C)C) 327.4 nm; (in CC(O)CO) 338 nm. In addition, the absorption maximum by setting is: (in CCC(C)CC) 324.4 nm; (in CCCCC) 324.5 nm; (in CCCCCC) 325.3 nm; (in CCCCCCCCC) 326 nm; (in CCCCCCCCCC) 326.2 nm; (in CCCCCCCO) 328.3 nm. The molecule also registered an absorption maximum (in CCCCCCO) of 328.2 nm; an absorption maximum (in CCCCCO) of 327.3 nm; an absorption maximum (in CCCCO) of 327.4 nm; an absorption maximum (in CCO) of 334.69 nm; an absorption maximum (in CCOC(C)=O) of 325.6 nm; an absorption maximum (in CCOCC) of 325.3 nm. The absorption maximum was found to be 327.9 nm (in CN(C)C=O); 334.2 nm (in CO); 326.8 nm (in COCCOC); 332.6 nm (in CS(C)=O); 328.9 nm (in Cc1ccccc1); 329.1 nm (in Cc1ccccc1C). The molecule further returned an absorption maximum (in ClC(Cl)Cl) of 329.7 nm; an absorption maximum (in ClCCl) of 328.8 nm; an absorption maximum (in NC=O) of 327.7 nm; an absorption maximum (in OC1CCCCC1) of 328.6 nm; an absorption maximum (in OCCO) of 338.9 nm; an absorption maximum (in c1ccccc1) of 328.8 nm.

In turn, `CC1(C)c2ccccc2N(c2ccc(-c3nc(C#N)c(C#N)nc3-c3ccc(N4c5ccccc5C(C)(C)c5ccccc54)cc3)cc2)c2ccccc21` came in with an absorption maximum (in Cc1ccccc1) of 436 nm.

On to `NC(=O)CC[C@H](/[NH+]=C\C=C1\C=C(C(=O)O)N[C@H](C(=O)O)C1)C(=O)O`, for which the absorption maximum by setting is: (in CCO) 474 nm; (in CO) 471 nm; (in O) 475 nm; (in OCC(F)(F)F) 473 nm; (in OCCO) 478 nm.

`O=c1c(-c2ccc(O)cc2)coc2cc(O)cc(O)c12`: the absorption maximum is, setting by setting: (in CC#N) 360 nm; (in CCO) 340 nm.

In turn, `FC(F)(F)c1ccccc1B1c2ccccc2N(c2ccccc2)c2ccccc21` came in with an absorption maximum (in ClCCl) of 389 nm.

Take `c1ccc2c(c1)ccc1ccccc12`: under “in Cc1ccccc1”, the absorption maximum worked out at 295 nm.

`Cc1cc(C)c(B(c2cc(-c3ccc(C(F)(F)F)cc3)sc2-c2sc(-c3ccc(C(F)(F)F)cc3)cc2P(=O)(c2ccccc2)c2ccccc2)c2c(C)cc(C)cc2C)c(C)c1` returned an absorption maximum (in CO) of 389 nm.

Consider `COc1ccc(/C=C/C2=[O+][B-](F)(F)OC(/C=C/c3ccc(OC)cc3)=C2c2ccc(OC)cc2)cc1`, for which the absorption maximum (in ClCCl) is 506 nm.

For `CCN(CC)c1ccc2c(c1)oc(=O)c1c(C)nc3c(c(-c4ccccc4)nn3-c3ccccc3)c12`, the absorption maximum (in ClCCl) was 410 nm.

Molecule `CC(C)(C)c1ccc2c(c1)c1cc(C(C)(C)C)ccc1n2-c1ccc(S(=O)(=O)c2cccc(S(=O)(=O)c3ccc(-n4c5ccc(C(C)(C)C)cc5c5cc(C(C)(C)C)ccc54)cc3)c2)cc1` showed an absorption maximum (in Cc1ccccc1) of 348 nm.

Under “in C1CCOC1”, `c1ccc2c(c1)-c1ccccc1C21c2ccccc2-c2oc3c(c21)C1(c2ccccc2-c2ccccc21)c1ccccc1-3` showed an absorption maximum of 367 nm.

`Cc1ccc(N(C)C)cc1C1=C2C=CC(=[N+](C)C)C=C2[Si](C)(C)c2cc(N(C)C)ccc21` returned an absorption maximum (in O) of 646 nm.

The molecule `Cc1ccc(-c2ccc(/C=C/c3ccc(Cl)cc3)cn2)nc1` came in with an absorption maximum (in CC#N) of 337 nm.

For the molecule `CCCCCCCCCCCCOc1cc2c3cc(OCCCCCCCCCCCC)c(OCCCCCCCCCCCC)cc3c3c(cc(OCCCCCCCCCCCC)c4nc5cc(C#Cc6ccc(CCCCCCCCCC)cc6)c(C#Cc6ccc(CCCCCCCCCC)cc6)cc5nc43)c2cc1OCCCCCCCCCCCC`, the absorption maximum (in ClC(Cl)Cl) is given as 482 nm.

`FC(F)(F)c1ccc2oc3nc4oc5ccc(N(c6ccccc6)c6ccccc6)cc5c4cc3c2c1` registered an absorption maximum (in ClC(Cl)Cl) of 345 nm.

`CC1(C)c2ccccc2N(c2ccc3c(c2)c2cc(N4c5ccccc5C(C)(C)c5ccccc54)cc4c5ccccc5n3c42)c2ccccc21` showed an absorption maximum (in C1CCOC1) of 367 nm.

On to `CC[N+]1(CC)CN2C(C)=CC(C)=C(C(=O)O)C2=N1`, for which the absorption maximum is, setting by setting: (in CN(C)C=O) 346 nm; (in O) 343 nm.

For the molecule `CCCCCCCCCCN1C(=O)c2cc(NCCCOCCO)c3c4c(cc(NCCCOCCO)c(c24)C1=O)C(=O)N(CCCCCCCCCC)C3=O`, the absorption maximum is recorded as 604 nm (in CO) and 609 nm (in ClC(Cl)Cl).

Consider `c1ccc(-c2nc(-c3c[nH]c4ccccc34)n3ccccc23)cc1`, for which the absorption maximum (in C1CCCCC1) is on record as 382 nm; the absorption maximum (in CC#N) is 381 nm; the absorption maximum (in CO) came out at 372 nm; the absorption maximum (in ClCCl) is 380 nm; the absorption maximum (in O) came out at 390 nm.

For `CN(C)c1ccc(/C=C/C=N/N=C/c2ccc3ccc4cccc5ccc2c3c45)cc1`, the absorption maximum (in CC#N) worked out at 426 nm; the absorption maximum (in CC(C)(C)O) came out at 420 nm; the absorption maximum (in CC(C)=O) was 418 nm; the absorption maximum (in CC(C)O) is 432 nm; the absorption maximum (in CCCCO) was 433 nm; the absorption maximum (in CO) is 434 nm. The absorption maximum (in CS(C)=O) worked out at 438 nm, the absorption maximum (in ClC(Cl)Cl) was 433 nm, the absorption maximum (in ClCCl) is 430 nm and the absorption maximum (in O) turned out to be 420 nm.

`CCN(CC)c1ccc2cc(-c3ccc(S(C)(=O)=O)cc3)oc(=O)c2c1`: the absorption maximum runs as follows: (in CC(C)=O) 375 nm; (in CCCCCC) 373 nm; (in CCCCO) 378 nm; (in CCCO) 378 nm; (in CCO) 376 nm; (in CCOC(C)=O) 374 nm. Moreover, the absorption maximum by setting is: (in CN(C)C=O) 379 nm; (in CO) 376 nm; (in ClC(Cl)Cl) 383 nm.

With `CCCCCCN1C(=O)c2cccc3c(-c4ccc(-c5cc(-c6ccc(Cl)cc6)nn5-c5ccccc5)s4)ccc(c23)C1=O`, the absorption maximum (in ClCCl) stood at 389 nm.

`COC(=O)/C=C/C1=CC2=C(c3c(C)cc(C)cc3C)c3cccn3[B-](F)(F)[N+]2=C1` yielded an absorption maximum (in ClCCl) of 537 nm.

Molecule `Cc1cc2ccccc2c2c1c1ccccc1n2-c1ccc(C#N)cc1` had an absorption maximum (in ClCCl) of 303 nm.

For the setting “in ClCCl”, `CCCCCCOc1cc(/C=C/c2cc(OCCCCCC)c(/C=C/c3cc(OCCCCCC)c(C=C4C(=C(C#N)C#N)c5ccccc5C4=C(C#N)C#N)cc3OCCCCCC)cc2OCCCCCC)c(OCCCCCC)cc1C=C1C(=C(C#N)C#N)c2ccccc2C1=C(C#N)C#N` displayed an absorption maximum of 640 nm.

With `COc1ccc2n1[B-](F)(F)[N+]1=CC=CC1=C2c1ccccc1`, the absorption maximum reads like this: (in CC#N) 493 nm; (in CCCCCC) 499 nm; (in CCOC(C)=O) 495 nm; (in CO) 495 nm; (in ClCCl) 499 nm.

Consider `C[Si]1(C)c2cc(-c3ccc(-c4cccs4)s3)ccc2C=Cc2ccc(-c3ccc(-c4cccs4)s3)cc21`, for which the absorption maximum (in ClCCl) was determined as 458 nm.

As to `Cc1cc(-n2c3ccccc3c3cc(C#N)ccc32)ccc1-c1ccc(S(=O)(=O)c2ccccc2)cc1C`, under “in Cc1ccccc1”, the absorption maximum is 341 nm.

`Cc1nc2cccc(-c3nc4ccc([N+](=O)[O-])cc4[nH]3)c2c(=O)[nH]1` came in with an absorption maximum (in CN(C)C=O) of 310 nm.

As to `F[B-]1(F)n2cccc2C(c2c3ccccc3c(-c3ccccc3)c3ccccc23)=C2C=CC=[N+]21`, the absorption maximum by setting is: (in CC#N) 502 nm; (in CCCCCC) 509 nm; (in CCO) 504 nm; (in CN(C)C=O) 506 nm; (in Cc1ccccc1) 509 nm; (in ClCCl) 506 nm.

For `COc1cc(OC)cc(C2=C3C(C)=C(I)C(C)=[N+]3[B-](F)(F)n3c(/C=C/c4ccsc4)c(I)c(C)c32)c1`, the absorption maximum reads like this: (in C1CCOC1) 598 nm; (in CS(C)=O) 604 nm; (in ClCCl) 599 nm.

`O=C1c2ccc(N(c3ccccc3)c3ccccc3)cc2C(=O)c2ccc(N(c3ccccc3)c3ccccc3)cc21` showed an absorption maximum (in Cc1ccccc1) of 449 nm.

On to `Cc1nc2cccc(-c3nc4ccccc4s3)c2c(=O)[nH]1`, for which the absorption maximum (in CN(C)C=O) stood at 319 nm.

For `CCOC(=O)c1cc(C(=O)OCC)c2c(C)ccc(OC(=O)OC(C)(C)C)c2n1`, the absorption maximum (in CCO) came out at 312 nm.

Take `CCN(CC)c1ccc2cc(-c3nc4cc(C(=O)Nc5cccc(C)c5)ccc4o3)c(=O)oc2c1`: under “in ClCCl”, the absorption maximum is 440 nm.

Molecule `C[n+]1c2c(c(-c3ccccc3)c3c1CCCC3)CCCC2` yielded an absorption maximum (in CCO) of 340.03 nm.

On to `CCOC(=O)c1ccc2nc(N)sc2c1`, for which the absorption maximum reads like this: (in CC#N) 293 nm; (in ClCCl) 293 nm.

Under “in Cc1ccccc1”, `F[B-]1(F)Oc2ccccc2-c2nc(-c3ccccc3)c3cc(Cl)ccc3[n+]21` yielded an absorption maximum of 395 nm.

`COC(=O)/C(C#N)=c1\s/c(=c2/s/c(=C(/C#N)C(=O)OC)c3cc(-c4ccc(F)cc4)sc23)c2sc(-c3ccc(F)cc3)cc12` gave an absorption maximum (in Cc1ccccc1) of 602 nm.

Turning to `CCOC(=O)c1c(-c2c(Cl)c3ccccc3oc2=O)nn(-c2cccc(Cl)c2)c1C(=O)OCC`, the absorption maximum (in ClCCl) is on record as 321 nm.

Source of the values: the Deep4Chem optical property database.
